Where a name gives a salt, the structure may show the parent alone.

Test [1] deals with T1, HPK1 (Homo sapiens, UniProt Q92918).
T1 sequence (Q92918 1-346): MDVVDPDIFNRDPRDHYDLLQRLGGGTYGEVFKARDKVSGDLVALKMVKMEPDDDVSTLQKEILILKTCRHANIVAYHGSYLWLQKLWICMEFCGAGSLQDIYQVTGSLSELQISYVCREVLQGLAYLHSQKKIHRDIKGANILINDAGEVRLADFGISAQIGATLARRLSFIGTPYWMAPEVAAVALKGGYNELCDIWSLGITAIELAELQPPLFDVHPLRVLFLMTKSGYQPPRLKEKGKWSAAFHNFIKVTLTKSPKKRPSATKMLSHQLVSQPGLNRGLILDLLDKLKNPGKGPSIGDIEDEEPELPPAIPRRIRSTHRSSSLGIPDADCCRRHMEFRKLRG
Briefly: HPK1 kinase activity assay (ADP-Glo). Conditions: 1 nM HPK1, 10 μM ATP, 0.1 μg/μL MBP. (In general: ADP-Glo first removes unused ATP, then detects ADP through luciferase.)
Method: Preparation of buffer: Ix reaction buffer (40 mM Tris-HCl, 20 mM MgCl2, 0.01% Brij35, 50 μM DTT, 0.1 mg/ml BSA) was prepared using sterile water, which was prepared and used on the day of the experiment.
Preparation of 1000× drug stock plate: a 1000× compound stock plate was prepared. […] The compound stock plate was sealed with a sealing film and stored in a −20° C. refrigerator for later use.
Compound preparation and dosing: the 1000× drug stock plate was taken and melted at room temperature in the dark. Then 5× drug intermediate plate was prepared using reaction buffer and mixed well. 2 μL was transferred from the 5× drug intermediate plate into a 384-well plate, and negative control well and positive control well (in which 2 μL reaction buffer containing 0.5% DMSO was added) were set. Each point was repeated twice.
Preparation and incubation of reaction mixture: HPK1 protein was diluted to a 2.5× working solution with reaction buffer. 4 μL 2.5×HPK1 protein was added to each well containing test compound and positive control well, and 4 μL of reaction buffer without HPK1 protein was added to the negative control well. The obtained mixture was centrifuged at 1000 rpm for 1 min and then incubated in a 20° C. incubator for 15 min. A 2.5× mixed working solution of MBP protein and ATP was prepared with reaction buffer at concentrations of 0.5 μg/μL and 50 μM, respectively. 4 μL of the mixed working solution of MBP and ATP was added to each well, centrifuged at 1000 rpm for 1 min, and then incubated in a 20° C. incubator for 90 min.
ADP-Glo detection and reading plate: 10 μl ADP-Glo was added to each well of the test plate. The resulting mixture was centrifuged at 1000 rpm for 1 min and incubated in a 20° C. incubator for 60 min. Then 10 μL of the final incubation solution was transferred from the test plate to a new 384-well plate. 10 μL of kinase detection reagent was added to each well, centrifuged at 400 g for 1 min, and incubated in a 20° C. incubator for 60 min Chemiluminescent signals were read by a microplate reader.

Test [2] addresses HPK1 (Homo sapiens, UniProt Q92918). As to the kind of experiment: SLP76 phosphorylation assay (intracellular HPK1 inhibitory activity, p-SLP76 S376 ELISA in Jurkat cells). Particulars: Clone E6-1 cells, 1 h compound pre-incubation, anti-CD3 beads stimulation 20 min, Phospho-SLP-76 (Ser376) ELISA.
Target sequence in this assay (Q92918 whole entry): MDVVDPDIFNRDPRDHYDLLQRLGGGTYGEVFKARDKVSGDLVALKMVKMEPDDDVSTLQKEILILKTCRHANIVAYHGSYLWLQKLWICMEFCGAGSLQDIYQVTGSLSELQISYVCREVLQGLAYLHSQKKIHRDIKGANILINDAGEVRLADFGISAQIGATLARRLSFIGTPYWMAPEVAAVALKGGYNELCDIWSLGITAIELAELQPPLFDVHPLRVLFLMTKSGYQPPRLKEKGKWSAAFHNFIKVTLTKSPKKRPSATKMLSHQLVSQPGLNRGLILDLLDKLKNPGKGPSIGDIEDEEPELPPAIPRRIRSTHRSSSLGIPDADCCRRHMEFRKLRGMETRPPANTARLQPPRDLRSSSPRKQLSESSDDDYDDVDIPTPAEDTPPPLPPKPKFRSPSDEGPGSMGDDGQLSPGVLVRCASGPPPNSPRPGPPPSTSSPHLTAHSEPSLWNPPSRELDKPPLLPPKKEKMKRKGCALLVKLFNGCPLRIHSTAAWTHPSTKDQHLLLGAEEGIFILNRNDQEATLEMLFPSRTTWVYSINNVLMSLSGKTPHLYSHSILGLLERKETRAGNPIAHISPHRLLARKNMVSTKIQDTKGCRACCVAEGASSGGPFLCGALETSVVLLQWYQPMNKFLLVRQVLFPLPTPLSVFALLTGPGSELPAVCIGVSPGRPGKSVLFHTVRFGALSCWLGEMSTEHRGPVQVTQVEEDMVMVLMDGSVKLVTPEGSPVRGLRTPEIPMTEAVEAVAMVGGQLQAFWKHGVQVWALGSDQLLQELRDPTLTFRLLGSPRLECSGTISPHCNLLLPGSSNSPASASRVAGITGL
The mark [3] stands for this setting: read-out: HPK1 Kinase activity IC50, ADP-Glo.
Setting [4] is: HPK1 Kinase activity IC50, ADP-Glo.

On to “5-(8-(4-fluoropyrrolidin-2-yl)isochromen-6-yl)-3-methyl-1H-pyrrolo[2,3-b]pyridine [Compound Z367-1]”, for which the IC50 is 1.44 nM in test [1] (setting [3]) and 999 nM in test [2] (read-out: p-SLP76 IC50, Jurkat). For the compound `Cc1c[nH]c2ncc(-c3cc4c(c([C@@H]5CCCN5)c3)CN(C(=O)C(C)O)C4)cc12` (mixture of isomers) [Compound Z382, rac-2-hydroxy-1-(6-(3-methyl-1H-pyrrolo[2,3-b]pyridin-5-yl)-4-((R)-pyrrolidin-2-yl)isoindolin-2-yl)propan-1-one], the IC50 in test [1] (setting [4]) turned out to be 1.35 nM; in test [2] (p-SLP76 IC50, Jurkat), 474 nM. For `Cc1c[nH]c2ncc(-c3cc4c(c([C@@H]5CCCN5)c3)CN(C(=O)[C@H](O)c3cccnc3)CC4)cc12` (single isomer, unassigned) [Compound Z287], the concentration for half-maximal inhibition (IC50) in test [1] (setting [4]) came to 0.4 nM; in test [2] (p-SLP76 IC50, Jurkat), 338 nM.

Consider `Cc1c[nH]c2ncc(-c3cc4c(c([C@@H]5CCCN5)c3)CN(C(=O)[C@@H](O)c3cccnc3)CC4)cc12` (single isomer, unassigned) [Compound Z288], for which the IC50 in test [1] (setting [4]) came out at 0.69 nM; in test [2] (p-SLP76 IC50, Jurkat) it was 321 nM. On to `Cc1c[nH]c2ncc(-c3cc4c(c([C@@H]5CCCN5)c3)CN(C(=O)N3CCOC(C(F)(F)F)C3)CC4)cc12` (single isomer, unassigned) [Compound Z490], for which the IC50 in test [1] (setting [4]) came to 1.66 nM; in test [2] (p-SLP76 IC50, Jurkat), 430 nM. Consider `Cc1c[nH]c2ncc(-c3cc4c(c([C@@H]5CCCN5)c3)CN(C(=O)N3CCOC(C(F)(F)F)C3)CC4)cc12` (single isomer, unassigned) [Compound Z491], for which the IC50 is 1.29 nM in test [1] (setting [4]) and 308 nM in test [2] (p-SLP76 IC50, Jurkat).

Take `O=C(N1CCc2cc(-c3cnc4[nH]cc(Cl)c4n3)cc([C@@H]3COCCN3)c2C1)N1C[C@@H]2CC[C@H]1CO2` (single isomer, unassigned) [Compound Z590]: the IC50 in test [1] (setting [4]) turned out to be 0.24 nM; in test [2] (p-SLP76 IC50, Jurkat), 61.7 nM. The corresponding values for `Cc1c[nH]c2ncc(-c3cc4c(c([C@@H]5COCCN5)c3)CN(C(=O)N3C[C@@H]5CC[C@H]3CO5)CC4)cc12` (single isomer, unassigned) [Compound Z644] are 0.25 nM and 61.6 nM. `CCC(=O)N1CCc2cc(-c3cnc4[nH]cc(C)c4c3)cc(C3CCCN3)c2C1` (centres unmarked) [Compound Z35] yielded an IC50 in test [1] (setting [4]) of 0.87 nM.

For `Cc1c[nH]c2ncc(-c3cc4c(c([C@@H]5CCCN5)c3)CN(C(=O)C(C)(C)C)CC4)cc12` [Compound Z126], the IC50 turned out to be 0.78 nM in test [1] (setting [4]) and 252 nM in test [2] (p-SLP76 IC50, Jurkat). Regarding `Cc1c[nH]c2ncc(-c3cc4c(c([C@@H]5CCCN5)c3)CN(C(=O)CC3CC3)CC4)cc12` [Compound Z220, (S)-2-cyclopropyl-1-(6-(3-methyl-1H-pyrrolo[2,3-b]pyridin-5-yl)-8-(pyrrolidin-2-yl)-3,4-dihydroisoquinolin-2(1H)-yl)ethanone], the half-maximal inhibitory concentration (IC50) in test [1] (setting [3]) amounted to 2.26 nM; in test [2] (read-out: p-SLP76 IC50, Jurkat), 469 nM.

For the compound `Cc1cc(CC(=O)N2CCc3c(cc(-c4cnc5[nH]cc(C)c5c4)cc3[C@@H]3CCCN3)C2)ccn1` [Compound Z333, (S)-2-(2-methyl-4-pyridyl)-1-[7-(3-methyl-1H-pyrrolo[2,3-b]pyridin-5-yl)-5-pyrrolidin-2-yl-3,4-dihydro-1H-isoquinolin-2-yl]ethanone], the IC50 in test [1] (setting [4]) was found to be 0.49 nM; in test [2] (p-SLP76 IC50, Jurkat), 205 nM. For the compound `Cc1cn(C2CC2)nc1C(=O)N1CCc2cc(-c3cnc4[nH]cc(C)c4c3)cc([C@@H]3CCCN3)c2C1` [Compound Z342, (S)-(1-cyclopropyl-4-methyl-1H-pyrazol-3-yl)-[6-(3-methyl-1H-pyrrolo[2,3-b]pyridin-5-yl)-8-[pyrrolidin-2-yl]-3,4-dihydro-2(1H)-isoquinolin-yl]methanone], the IC50 in test [1] (setting [3]) is 0.64 nM. In the case of `Cc1c[nH]c2ncc(-c3cc4c(c([C@@H]5COCCN5)c3)CN(C(=O)C(C)(C)O)CC4)cc12` [Compound Z372, (R)-2-hydroxy-2-methyl-1-[6-(3-methyl-1H-pyrrolo[2,3-b]pyridin-5-yl)-8-[morphin-3-yl]-3,4-dihydroisoquinolin-2(1H)-yl]propan-1-one], the IC50 is 0.18 nM in test [1] (setting [4]) and 106 nM in test [2] (p-SLP76 IC50, Jurkat). For `Cc1c[nH]c2ncc(-c3cc4c(c([C@@H]5COCCN5)c3)CN(C(=O)C3CCOCC3)CC4)cc12` [Compound Z375] the same measures were 0.59 nM and 258 nM. For `CCNC(=O)N1CCc2cc(-c3cnc4[nH]cc(C)c4c3)cc([C@@H]3COCCN3)c2C1` [Compound Z376, (R)—N-ethyl-6-(3-methyl-1H-pyrrolo[2,3-b]pyridin-5-yl)-8-(morpholin-3-yl)-3,4-dihydroisoquinoline-2(1H)-carboxamide formate] the same measures were 0.33 nM and 211 nM. Take `Cc1c[nH]c2ncc(-c3cc4c(c([C@@H]5COCCN5)c3)CCN(C(=O)C3CCOCC3)C4)cc12` [Compound Z377, (R)-(7-(3-methyl-1H-pyrrolo[2,3-b]pyridin-5-yl)-5-(morpholin-3-yl)-3,4-dihydroisoquinolin-2(1H)-yl)(tetrahydro-2H-pyran-4-yl)methanone]: the IC50 was 0.28 nM in test [1] (setting [4]) and 190 nM in test [2] (p-SLP76 IC50, Jurkat). With `CCc1c(Cl)[nH]c2ncc(-c3cc4c(c([C@@H]5CCCN5)c3)CN(C(=O)COC)CC4)cc12` [Compound Z411], the IC50 in test [1] (setting [4]) is 1.12 nM; in test [2] (p-SLP76 IC50, Jurkat), 428 nM. Turning to `CC(C)c1c[nH]c2ncc(-c3cc4c(c([C@@H]5CCCN5)c3)CN(C(=O)C(C)(C)O)CC4)cc12` [Compound Z416, (S)-2-hydroxy-1-(6-(3-isopropyl-1H-pyrrolo[2,3-b]pyridin-5-yl)-8-(pyrrolidin-2-yl)-3,4-dihydroisoquinolin-2(1H)-yl)-2-methylpropan-1-one], the IC50 in test [1] (setting [4]) stood at 0.29 nM; in test [2] (p-SLP76 IC50, Jurkat) it was 63.1 nM. Turning to `CC(C)c1c[nH]c2ncc(-c3cc4c(c([C@@H]5COCCN5)c3)CN(C(=O)C(C)(C)O)CC4)cc12` [Compound Z419, (R)-2-hydroxy-1-(6-(3-isopropyl-1H-pyrrolo[2,3-b]pyridin-5-yl)-8-(morpholin-3-yl)-3,4-dihydroisoquinolin-2(1H)-yl)-2-methylpropan-1-one], the 50% inhibitory concentration (IC50) was found to be 0.11 nM in test [1] (setting [4]) and 74.2 nM in test [2] (p-SLP76 IC50, Jurkat). For `CCc1c(Cl)[nH]c2ncc(-c3cc4c(c([C@@H]5COCCN5)c3)CN(C(=O)C(C)(C)O)CC4)cc12` [Compound Z422, (R)-1-(6-(2-chloro-3-ethyl-1H-pyrrolo[2,3-b]pyridin-5-yl)-8-(morpholin-3-yl)-3,4-dihydroisoquinolin-2(1H)-yl)-2-hydroxy-2-methylpropan-1-one] the same measures were 0.72 nM and 349 nM.

As to `CC(C)(O)C(=O)N1CCc2cc(-c3cnc4[nH]cc(F)c4c3)cc([C@@H]3COCCN3)c2C1` [Compound Z445, (R)-1-(6-(3-fluoro-1H-pyrrolo[2,3-b]pyridin-5-yl)-8-(morpholin-3-yl)-3,4-dihydroisoquinolin-2(1H)-yl)-2-hydroxy-2-methylpropan-1-one], the IC50 in test [1] (setting [4]) was 0.85 nM; in test [2] (p-SLP76 IC50, Jurkat), 253 nM. The corresponding values for `Cc1c[nH]c2ncc(-c3cc4c(c([C@@H]5COCCN5)c3)CCN(C(=O)[C@H]3CCOC3)C4)cc12` [Compound Z446, (7-(3-methyl-1H-pyrrolo[2,3-b]pyridin-5-yl)-5-((R)-morpholin-3-yl)-3,4-dihydroisoquinolin-2(1H)-yl)((S)-tetrahydrofuran-3-yl)methanone] are 0.83 nM and 196 nM.

Take `O=C(N1CCc2cc(-c3cnc4[nH]cc(Cl)c4c3)cc([C@@H]3COCCN3)c2C1)N1CC2CCC(C1)O2` [Compound Z447, (8-oxa-3-azabicyclo[3.2.1]octan-3-yl)(6-(3-chloro-1H-pyrrolo[2,3-b]pyridin-5-yl)-8-((R)-morpholin-3-yl)-3,4-dihydroisoquinolin-2(1H)-yl)methanone]: the IC50 in test [1] (setting [4]) turned out to be 0.18 nM; in test [2] (p-SLP76 IC50, Jurkat) it was 44.8 nM. For `CCc1c[nH]c2ncc(-c3cc4c(c([C@@H]5COCCN5)c3)CN(C(=O)N3CCOCC3)CC4)cc12` [Compound Z448, (R)-(6-(3-ethyl-1H-pyrrolo[2,3-b]pyridin-5-yl)-8-(morpholin-3-yl)-3,4-dihydroisoquinolin-2(1H)-yl)(morpholine)methanone] the same measures were 0.29 nM and 120 nM. In turn, `Cc1c[nH]c2ncc(-c3cc4c(c([C@H]5COCCN5)c3)CCN(C(=O)C3CCOCC3)C4)cc12` [Compound Z449, (S)-(7-(3-methyl-1H-pyrrolo[2,3-b]pyridin-5-yl)-5-(morpholin-3-yl)-3,4-dihydroisoquinolin-2(1H)-yl)(tetrahydro-2H-pyran-4-yl)methanone] returned an IC50 in test [1] (setting [4]) of 12.4 nM.

Consider `Cc1c[nH]c2ncc(-c3cc4c(c([C@@H]5COCCN5)c3)CN(C(=O)C3(O)CCOCC3)CC4)cc12` [Compound Z450], for which the IC50 in test [1] (setting [4]) came to 0.22 nM; in test [2] (p-SLP76 IC50, Jurkat), 158 nM. The corresponding values for `Cc1c[nH]c2ncc(-c3cc4c(c([C@@H]5COCCN5)c3)CN(C(=O)N3CC5CCC(C3)O5)CC4)cc12` [Compound Z451, (8-oxa-3-azabicyclo[3.2.1]octan-3-yl)(6-(3-methyl-1H-pyrrolo[2,3-b]pyridin-5-yl)-8-((R)-morpholin-3-yl)-3,4-dihydroisoquinolin-2(1H)-yl)methanone] are 0.11 nM and 44.2 nM.

As usually defined, the IC50 is the point on the concentration scale where inhibition reaches its midpoint.
